Measurements as given in patent US9018208B2, “Heterocycles as potassium channel modulators” (Icagen Inc., priority 2007, dated 2015).

tested on: SH-SY5Y M-currents (KCNQ2, KCNQ3 and KCNQ5); assay: SH-SY5Y native cell line FLIPR assay (voltage-sensitive dye DiBAC); assay type: cell-based, mouse neuroblastoma, rat glioma hybrid cell line; settings: FLIPR assay, SH-SY5Y native cell line; Table 4; read-out: SH-SY5Y EC50
Outline: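 Response is peak DiBAC fluorescence change, normalised to the maximum from a positive control agent, sampled every 30 s over 25 min. Before compound addition, SH-SY5Y cells differentiated with PGE1 plus isomethylbutylxanthine were dye-loaded for 1 h in EBSS with […] DiBAC.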

Q: With Cc1cccc2nc(NC(=O)CC(C)(C)C)c(-c3cccc(C(F)(F)F)c3)n12 [Compound 419, 3,3-dimethyl-N-(5-methyl-3-(3-(trifluoromethyl)phenyl)imidazo[1,2-a]pyridin-2-yl)butanamide] as the compound, how does the EC50 read?
A: The EC50 was < 500 nM.

Q: With Cc1cccc2nc(NC(=O)CC(C)C(F)(F)F)c(-c3cccc(C(F)(F)F)c3)n12 (stereo not drawn) [Compound 420, 4,4,4-trifluoro-3-methyl-N-(5-methyl-3-(3-(trifluoromethyl)phenyl)imidazo[1,2-a]pyridin-2-yl)butanamide] as the compound, how does the EC50 read?
A: The EC50 was 500 to 3000 nM.

same assay, conditions: FLIPR assay, SH-SY5Y native cell line; Table 5; read-out: SH-SY5Y EC50

Q: With Cc1c(NC(=O)C(F)(F)F)nc2ccc(F)cn12 [Compound 421, 2,2,2-trifluoro-N-(6-fluoro-3-methylimidazo[1,2-a]pyridin-2-yl)acetamide] as the compound, how does the EC50 read?
A: Its EC50 is 3000 to 10000 nM.

Q: Which EC50 does the source give for Cc1c(NC(=O)Cc2ccc(F)cc2)nc2ccc(F)cn12 [Compound 422, N-(6-fluoro-3-methylimidazo[1,2-a]pyridin-2-yl)-2-(4-fluorophenyl)acetamide] here?
A: The EC50 was 3000 to 10000 nM.

Q: For Cc1c(NC(=O)CC(C)(C)C)nc2ccc(F)cn12 [Compound 423, N-(6-fluoro-3-methylimidazo[1,2-a]pyridin-2-yl)-3,3-dimethylbutanamide], which EC50 is on record?
A: Its EC50 is 3000 to 10000 nM.

Q: With Cc1c(NC(=O)CC(F)(F)F)nc2ccc(F)cn12 [Compound 424, 3,3,3-trifluoro-N-(6-fluoro-3-methylimidazo[1,2-a]pyridin-2-yl)propanamide] as the compound, how does the EC50 read?
A: Its EC50 is 3000 to 10000 nM.

Q: For C=Cc1c(NC(=O)Cc2ccc(F)cc2)nc2ccc(F)cn12 [Compound 425, N-(6-fluoro-3-vinylimidazo[1,2-a]pyridin-2-yl)-2-(4-fluorophenyl)acetamide], which EC50 is on record?
A: The EC50 was 500 to 3000 nM.

Q: C=Cc1c(NC(=O)Cc2ccc(F)cc2)nc2cc(C(F)(F)F)ccn12 [Compound 426, 2-(4-fluorophenyl)-N-(7-(trifluoromethyl)-3-vinylimidazo[1,2-a]pyridin-2-yl)acetamide] was tested. Which EC50 did it give?
A: The EC50 was 500 to 3000 nM.

Q: C=Cc1c(NC(=O)CC(F)(F)F)nc2cc(C(F)(F)F)ccn12 [Compound 427, 3,3,3-trifluoro-N-(7-(trifluoromethyl)-3-vinylimidazo[1,2-a]pyridin-2-yl)propanamide] was tested. Which EC50 did it give?
A: Its EC50 is 3000 to 10000 nM.

same assay, conditions: SH-SY5Y native cell line, FLIPR assay (Table 3); read-out: SH-SY5Y EC50

Q: With Cc1ccc2nc(NC(=O)CC(C)(C)C)c(-c3cc(C(F)(F)F)ccn3)n2n1 [Compound 394, 3,3-dimethyl-N-(6-methyl-3-(4-(trifluoromethyl)pyridin-2-yl)imidazo[1,2-b]pyridazin-2-yl)butanamide] as the compound, how does the EC50 read?
A: Its EC50 is 3000 to 10000 nM.

Q: Cc1ccc2nc(NC(=O)Cc3ccc(F)cc3)c(-c3cc(C(F)(F)F)ccn3)n2n1 [Compound 395, 2-(4-fluorophenyl)-N-(6-methyl-3-(4-(trifluoromethyl)pyridin-2-yl)imidazo[1,2-b]pyridazin-2-yl)acetamide] was tested. Which EC50 did it give?
A: Its EC50 is 3000 to 10000 nM.

Q: With Cc1ccc2nc(NC(=O)CC(C)C(F)(F)F)c(-c3cc(C(F)(F)F)ccn3)n2n1 (stereo not drawn) [Compound 396, 4,4,4-trifluoro-3-methyl-N-(6-methyl-3-(4-(trifluoromethyl)pyridin-2-yl)imidazo[1,2-b]pyridazin-2-yl)butanamide] as the compound, how does the EC50 read?
A: Its EC50 is 3000 to 10000 nM.

Q: How did the EC50 turn out when Cc1ccc2nc(NC(=O)C3CCC(F)(F)CC3)c(-c3cc(C(F)(F)F)ccn3)n2n1 [Compound 397, 4,4-difluoro-N-(6-methyl-3-(4-(trifluoromethyl)pyridin-2-yl)imidazo[1,2-b]pyridazin-2-yl)cyclohexanecarboxamide] was run?
A: The EC50 was 3000 to 10000 nM.

Q: CC(C)(C)CC(=O)Nc1nc2ccc(C(F)(F)F)cn2c1-c1cc(C(F)(F)F)ccn1 [Compound 398, 3,3-dimethyl-N-(6-(trifluoromethyl)-3-(4-(trifluoromethyl)pyridin-2-yl)imidazo[1,2-a]pyridin-2-yl)butanamide] was tested. Which EC50 did it give?
A: The EC50 was < 500 nM.

Q: With CC(CC(=O)Nc1nc2ccc(C(F)(F)F)cn2c1-c1cc(C(F)(F)F)ccn1)C(F)(F)F (stereo not drawn) [Compound 399, 4,4,4-trifluoro-3-methyl-N-(6-(trifluoromethyl)-3-(4-(trifluoromethyl)pyridin-2-yl)imidazo[1,2-a]pyridin-2-yl)butanamide] as the compound, how does the EC50 read?
A: Its EC50 is 500 to 3000 nM.

Q: Which EC50 does the source give for O=C(Cc1ccc(F)cc1)Nc1nc2ccc(C(F)(F)F)cn2c1-c1cc(C(F)(F)F)ccn1 [Compound 400, 2-(4-fluorophenyl)-N-(6-(trifluoromethyl)-3-(4-(trifluoromethyl)pyridin-2-yl)imidazo[1,2-a]pyridin-2-yl)acetamide] here?
A: The EC50 was < 500 nM.

Q: For CC(CC(=O)Nc1nc2ccc(F)cn2c1-c1cc(C(F)(F)F)ccn1)C(F)(F)F (stereo not drawn) [Compound 401, 4,4,4-trifluoro-N-(6-fluoro-3-(4-(trifluoromethyl)pyridin-2-yl)imidazo[1,2-a]pyridin-2-yl)-3-methylbutanamide], which EC50 is on record?
A: Its EC50 is 500 to 3000 nM.

Q: O=C(Nc1nc2ccc(F)cn2c1-c1cc(C(F)(F)F)ccn1)C1CCC(F)(F)CC1 [Compound 402, 4,4-difluoro-N-(6-fluoro-3-(4-(trifluoromethyl)pyridin-2-yl)imidazo[1,2-a]pyridin-2-yl)cyclohexanecarboxamide] was tested. Which EC50 did it give?
A: The EC50 was < 500 nM.

Q: With O=C(Cc1ccc(F)cc1)Nc1nc2ccccn2c1-c1cc(C(F)(F)F)ccn1 [Compound 403, 2-(4-fluorophenyl)-N-(3-(4-(trifluoromethyl)pyridin-2-yl)imidazo[1,2-a]pyridin-2-yl)acetamide] as the compound, how does the EC50 read?
A: The EC50 was < 500 nM.

Q: Which EC50 does the source give for CC(C)(C)CC(=O)Nc1nc2ccccn2c1-c1cc(C(F)(F)F)ccn1 [Compound 404, 3,3-dimethyl-N-(3-(4-(trifluoromethyl)pyridin-2-yl)imidazo[1,2-a]pyridin-2-yl)butanamide] here?
A: Its EC50 is 500 to 3000 nM.

Q: CC(CC(=O)Nc1nc2ccccn2c1-c1cc(C(F)(F)F)ccn1)C(F)(F)F (stereo not drawn) [Compound 405, 4,4,4-trifluoro-3-methyl-N-(3-(4-(trifluoromethyl)pyridin-2-yl)imidazo[1,2-a]pyridin-2-yl)butanamide] was tested. Which EC50 did it give?
A: The EC50 was 500 to 3000 nM.

Q: For CC(C)(C)CC(=O)Nc1nc2ccccn2c1-c1nccs1 [Compound 406, 3,3-dimethyl-N-(3-(thiazol-2-yl)imidazo[1,2-a]pyridin-2-yl)butanamide], which EC50 is on record?
A: Its EC50 is 500 to 3000 nM.

Q: O=C(Cc1ccc(F)cc1)Nc1nc2ccccn2c1-c1nccs1 [Compound 407, 2-(4-fluorophenyl)-N-(3-(thiazol-2-yl)imidazo[1,2-a]pyridin-2-yl)acetamide] was tested. Which EC50 did it give?
A: Its EC50 is 500 to 3000 nM.

Q: For CC(CC(=O)Nc1nc2ccccn2c1-c1nccs1)C(F)(F)F (stereo not drawn) [Compound 408, 4,4,4-trifluoro-3-methyl-N-(3-(thiazol-2-yl)imidazo[1,2-a]pyridin-2-yl)butanamide], which EC50 is on record?
A: Its EC50 is 3000 to 10000 nM.

Q: How did the EC50 turn out when O=C(Nc1nc2ccccn2c1-c1nccs1)C1CCC(F)(F)CC1 [Compound 409, 4,4-difluoro-N-(3-(thiazol-2-yl)imidazo[1,2-a]pyridin-2-yl)cyclohexanecarboxamide] was run?
A: Its EC50 is 500 to 3000 nM.

Q: O=C(Cc1ccc(F)cc1)Nc1nc2ccc(F)cn2c1-c1cc(C(F)(F)F)ccn1 [Compound 410, N-(6-fluoro-3-(4-(trifluoromethyl)pyridin-2-yl)imidazo[1,2-a]pyridin-2-yl)-2-(4-fluorophenyl)acetamide] was tested. Which EC50 did it give?
A: Its EC50 is < 500 nM.

Q: How did the EC50 turn out when O=C(Nc1nc2ccccn2c1-c1cc(C(F)(F)F)ccn1)C1CCC(F)(F)CC1 [Compound 411, 4,4-difluoro-N-(3-(4-(trifluoromethyl)pyridin-2-yl)imidazo[1,2-a]pyridin-2-yl)cyclohexanecarboxamide] was run?
A: Its EC50 is < 500 nM.

Q: O=C(Nc1nc2ccc(F)cn2c1-c1cc(C(F)(F)F)ccn1)C1CC1(F)F (stereo not drawn) [Compound 412, 2,2-difluoro-N-(6-fluoro-3-(4-(trifluoromethyl)pyridin-2-yl)imidazo[1,2-a]pyridin-2-yl)cyclopropanecarboxamide] was tested. Which EC50 did it give?
A: Its EC50 is 3000 to 10000 nM.

Q: Which EC50 does the source give for O=C(Nc1nc2ccccn2c1-c1cc(C(F)(F)F)ccn1)C1CC1(F)F (stereo not drawn) [Compound 413, 2,2-difluoro-N-(3-(4-(trifluoromethyl)pyridin-2-yl)imidazo[1,2-a]pyridin-2-yl)cyclopropanecarboxamide] here?
A: Its EC50 is 500 to 3000 nM.

Q: For CC(C)(C)CC(=O)Nc1nc2ccccn2c1-c1cscn1 [Compound 414, 3,3-dimethyl-N-(3-(thiazol-4-yl)imidazo[1,2-a]pyridin-2-yl)butanamide], which EC50 is on record?
A: The EC50 was 3000 to 10000 nM.

Q: COc1ccc2nc(NC(=O)CC(C)(C)C)c(-c3nccs3)n2n1 [Compound 415, N-(6-methoxy-3-(thiazol-2-yl)imidazo[1,2-b]pyridazin-2-yl)-3,3-dimethylbutanamide] was tested. Which EC50 did it give?
A: The EC50 was 3000 to 10000 nM.

Q: With Cc1nc(-c2c(NC(=O)CC(C)(C)C)nc3ccccn23)cs1 [Compound 416, 3,3-dimethyl-N-(3-(2-methylthiazol-4-yl)imidazo[1,2-a]pyridin-2-yl)butanamide] as the compound, how does the EC50 read?
A: Its EC50 is 3000 to 10000 nM.

same assay, conditions: SH-SY5Y native cell line, FLIPR assay (Table 6); read-out: SH-SY5Y EC50

Q: CC(C)(CC(=O)Nc1nc2ccc(C(F)(F)F)cn2c1C1CC1)C(F)(F)F [Compound 432, N-(3-cyclopropyl-6-(trifluoromethyl)imidazo[1,2-a]pyridin-2-yl)-4,4,4-trifluoro-3,3-dimethylbutanamide] was tested. Which EC50 did it give?
A: The EC50 was < 500 nM.

Q: How did the EC50 turn out when CC(C)(C)Cc1c(NC(=O)CC(C)(C)C(F)(F)F)nc2ccc(C(F)(F)F)cn12 [Compound 440, 4,4,4-trifluoro-3,3-dimethyl-N-(3-neopentyl-6-(trifluoromethyl)imidazo[1,2-a]pyridin-2-yl)butanamide] was run?
A: Its EC50 is < 500 nM.

Q: CC(C)(CC(=O)Nc1nc2ccc(C(F)(F)F)cn2c1C1CCCCC1)C(F)(F)F [Compound 441, N-(3-cyclohexyl-6-(trifluoromethyl)imidazo[1,2-a]pyridin-2-yl)-4,4,4-trifluoro-3,3-dimethylbutanamide] was tested. Which EC50 did it give?
A: The EC50 was < 500 nM.

Q: With CC(C)(CC(=O)Nc1nc2ccc(C(F)(F)F)cn2c1C1CCCC1)C(F)(F)F [Compound 442, N-(3-cyclopentyl-6-(trifluoromethyl)imidazo[1,2-a]pyridin-2-yl)-4,4,4-trifluoro-3,3-dimethylbutanamide] as the compound, how does the EC50 read?
A: Its EC50 is < 500 nM.

Q: Which EC50 does the source give for CC(C)CCc1c(NC(=O)CC(C)(C)C(F)(F)F)nc2ccc(C(F)(F)F)cn12 [Compound 443, 4,4,4-trifluoro-N-(3-isopentyl-6-(trifluoromethyl)imidazo[1,2-a]pyridin-2-yl)-3,3-dimethylbutanamide] here?
A: The EC50 was < 500 nM.

same assay, conditions: read-out: SH-SY5Y_EC50

Q: How did the EC50 turn out when Cc1c(NC(=O)CC(F)(F)F)nc2ccc(F)cn12 [Compound 424, 3,3,3-trifluoro-N-(6-fluoro-3-methylimidazo[1,2-a]pyridin-2-yl)propanamide] was run?
A: Its EC50 is 10000 nM.

same assay, conditions: unit inferred; read-out: SH-SY5Y_EC50

Q: For Cc1cccc2nc(NC(=O)CC(C)(C)C)c(-c3cccc(C(F)(F)F)c3)n12 [Compound 419, 3,3-dimethyl-N-(5-methyl-3-(3-(trifluoromethyl)phenyl)imidazo[1,2-a]pyridin-2-yl)butanamide], which EC50 is on record?
A: Its EC50 is 340 nM.
